Patent publication US7115609B2, “Alanyl-piperidine heterocyclic derivatives useful against cardiovascular diseases” (Eli Lilly and Company, priority 2001, dated 2006)

Row | melting point | SMILES
1 | 162 to 178 °C (dec.) | CN1CCC(C2CCN(C(=O)[C@H](CC3CCOCC3)NC(=O)c3ccc4cc[nH]c4c3)CC2)CC1.Cl
2 | 215 to 218 °C (dec.) | CN1CCC(N2CCN(C(=O)[C@@H](CCC(=O)O)NC(=O)c3ccc4cc[nH]c4c3)CC2)CC1.Cl
3 | 177 to 182 °C (dec.) | CN1CCC(C2CCN(C(=O)[C@@H](Cc3cccnc3)NC(=O)c3ccc4cc[nH]c4c3)CC2)CC1.Cl
4 | 162 to 172 °C (dec.) | CN1CCC(C2CCN(C(=O)[C@@H](CC3CCCCC3)NC(=O)c3ccc4cc[nH]c4c3)CC2)CC1.Cl
5 | 232 to 235 °C (dec.) | CN1CCC(N2CCN(C(=O)[C@@H](Cc3ccccn3)NC(=O)c3ccc4cc[nH]c4c3)CC2)CC1.Cl
6 | 190 to 193 °C (dec.) | CN1CCC(C[C@@H](NC(=O)c2ccc3cc[nH]c3c2)C(=O)N2CCN(C3CCN(C)CC3)CC2)CC1.Cl
7 | 179 to 185 °C (dec.) | CN1CCC(C2CCN(C(=O)[C@@H](Cc3cn(C)cn3)NC(=O)c3ccc4cc[nH]c4c3)CC2)CC1.Cl
8 | 183 to 186 °C (dec.) | CN1CCC(C2CCN(C(=O)[C@@H](Cc3ccncc3)NC(=O)c3ccc4cc[nH]c4c3)CC2)CC1.Cl
9 | 175 to 179 °C (dec.) | CN1CCC(C2CCN(C(=O)[C@@H](Cc3ccccn3)NC(=O)c3ccc4cc[nH]c4c3)CC2)CC1.Cl
10 | 215 to 219 °C (dec.) | CN1CCC(N2CCN(C(=O)[C@@H](CC(N)=O)NC(=O)c3ccc4cc[nH]c4c3)CC2)CC1.Cl

The remaining lines, values behind:

Row | SMILES | melting point
11 | CN1CCC(N2CCN(C(=O)[C@@H](Cc3ccccn3)NC(=O)c3cc4cc(Cl)ccc4[nH]3)CC2)CC1.Cl | 210 to 214 °C (dec.)
12 | CN1CCC(C[C@@H](NC(=O)c2cc3ccc(Cl)cc3s2)C(=O)N2CCN(C3CCN(C)CC3)CC2)CC1.Cl | 220 to 223 °C (dec.)
13 | CN1CCC(N2CCN(C(=O)[C@@H](Cc3ccncc3)NC(=O)c3cc4ccc(Cl)cc4s3)CC2)CC1.Cl | 213 to 217 °C (dec.)
14 | CN1CCC(N2CCN(C(=O)[C@@H](CCC(=O)O)NC(=O)c3cc4ccc(Cl)cc4s3)CC2)CC1.Cl | 185 to 190 °C (dec.)
15 | CN1CCC(N2CCN(C(=O)[C@@H](Cc3ccncc3)NC(=O)c3cc4cc(Cl)ccc4[nH]3)CC2)CC1.Cl | 238 to 242 °C (dec.)
16 | CN1CCC(N2CCN(C(=O)[C@@H](CC(N)=O)NC(=O)c3cc4cc(Cl)ccc4[nH]3)CC2)CC1.Cl | 235 to 240 °C (dec.)
17 | CN1CCC(N2CCN(C(=O)[C@@H](Cc3ccncc3)NC(=O)c3ccc4cc[nH]c4c3)CC2)CC1.Cl | 228 to 235 °C (dec.)
18 | CN1CCC(C[C@@H](NC(=O)c2cc3cc(Cl)ccc3[nH]2)C(=O)N2CCN(C3CCN(C)CC3)CC2)CC1.Cl | 205 to 210 °C (dec.)
19 | CN1CCC(N2CCN(C(=O)[C@@H](Cc3ccccn3)NC(=O)c3cc4ccc(Cl)cc4s3)CC2)CC1.Cl | 219 to 223 °C (dec.)
20 | CN1CCC(N2CCN(C(=O)[C@@H](CC(N)=O)NC(=O)c3cc4ccc(Cl)cc4s3)CC2)CC1.Cl | 219 to 223 °C (dec.)
21 | CN1CCC(N2CCN(C(=O)[C@@H](CCC(=O)O)NC(=O)c3cc4cc(Cl)ccc4[nH]3)CC2)CC1.Cl | 222 to 225 °C (dec.)
